Reference: US7368137B2, “Smilagenin and its use” (priority 1999, dated 2008)

Experiments:
[1] = tested on: m2 receptors on CHO cells; assay: Expression of m2 receptors on CHO cells transfected with DNA for the m2 receptor (tritiated QNB binding); assay type: cell-based; conditions: for Effect on receptor expression - given as % increase compared to control (negative values in brackets): DMSO control, NS = No significant effect
Procedure: 1. Chinese hamster ovary (CHO) cells transfected with the a DNA fragment coding for a muscarinic receptor. The cell line used-for the majority of the experiments was a cell line expressing the m2 receptor.
The-effects of various compounds on the expression of m2 receptors on CHO cells transfected with DNA for the m2 receptor were investigated. Receptor numbers were assayed using tritiated QNB binding and subtracting non-specific binding. Compounds were dissolved in DMSO and DMSO was used as a control. Compounds were tested at a range of final concentrations. Compounds were also tested in the presence and absence of tamoxifen to try to distinguish an oestrogen receptor mediated mechanism. The results are summarized in the Table 2 below, where the compound used in the invention appears in bold, and data on other sapogenins is given for comparative purposes: […]

[2] = tested on: muscarinic receptors on cultured cardiac muscle cells; assay: Muscarinic receptor expression on cultured neonatal cardiac muscle cells (tritiated QNB binding); assay type: cell-based, Sprague Dawley rats; conditions: NS = No significant effect
Chain of muscarinic receptors on cultured cardiac muscle cells (P10980 whole entry): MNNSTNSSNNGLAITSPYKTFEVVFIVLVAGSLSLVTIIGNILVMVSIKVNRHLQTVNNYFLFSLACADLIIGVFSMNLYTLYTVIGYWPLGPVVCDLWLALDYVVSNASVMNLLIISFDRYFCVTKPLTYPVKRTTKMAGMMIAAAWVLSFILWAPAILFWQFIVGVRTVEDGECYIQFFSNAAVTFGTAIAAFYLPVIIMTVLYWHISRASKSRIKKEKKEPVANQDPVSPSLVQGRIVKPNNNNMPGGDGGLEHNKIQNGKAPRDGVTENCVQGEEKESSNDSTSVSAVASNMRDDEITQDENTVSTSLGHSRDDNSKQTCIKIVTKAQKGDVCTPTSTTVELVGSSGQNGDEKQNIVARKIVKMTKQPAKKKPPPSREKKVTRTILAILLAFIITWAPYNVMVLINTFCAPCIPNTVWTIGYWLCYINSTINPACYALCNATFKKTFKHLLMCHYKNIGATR
Procedure: 3. Cultured cardiac muscle cells obtained from neonatal Sprague Dawley rats. The cardiac muscle cells express muscarinic receptors, typically m2. The level of these receptors fails on prolonged culture and the effects of compounds of interest in preventing the fall in receptor numbers was investigated.
Cardiac muscle cells were isolated from the ventricular muscle of neonatal Sprague Dawley rats using standard techniques. Cells were cultured in vitro and muscarinic receptor numbers expressed on cell surfaces membrane fragments after homogenization of cells harvested at various time points were estimated using specific binding of tritiated QNB. […] The experiments were therefore designed to investigate the effects of the various compounds in inhibiting this decline in receptor numbers.

oestrogen receptor = assay: Oestrogenic activity
Excerpt: (§1) In identifying compounds that would have use in the treatment of SDAT and other diseases characterized by reductions in receptor numbers or synaptic transmission, the inventors have given consideration to the need to identify compounds that would-have the desired effect but would be devoid of any oestrogenic effects, as these would be unacceptable, particularly in male patients. A number of the compounds claimed to have activity in patent application DE 4303214A1 have marked oestrogenic activity and are therefore unacceptable.

Progesterone receptor = biological target: T1, Progesterone receptor (Homo sapiens, UniProt P06401); assay: Activity at steroid receptors: progesterone
T1 sequence (P06401 1-933): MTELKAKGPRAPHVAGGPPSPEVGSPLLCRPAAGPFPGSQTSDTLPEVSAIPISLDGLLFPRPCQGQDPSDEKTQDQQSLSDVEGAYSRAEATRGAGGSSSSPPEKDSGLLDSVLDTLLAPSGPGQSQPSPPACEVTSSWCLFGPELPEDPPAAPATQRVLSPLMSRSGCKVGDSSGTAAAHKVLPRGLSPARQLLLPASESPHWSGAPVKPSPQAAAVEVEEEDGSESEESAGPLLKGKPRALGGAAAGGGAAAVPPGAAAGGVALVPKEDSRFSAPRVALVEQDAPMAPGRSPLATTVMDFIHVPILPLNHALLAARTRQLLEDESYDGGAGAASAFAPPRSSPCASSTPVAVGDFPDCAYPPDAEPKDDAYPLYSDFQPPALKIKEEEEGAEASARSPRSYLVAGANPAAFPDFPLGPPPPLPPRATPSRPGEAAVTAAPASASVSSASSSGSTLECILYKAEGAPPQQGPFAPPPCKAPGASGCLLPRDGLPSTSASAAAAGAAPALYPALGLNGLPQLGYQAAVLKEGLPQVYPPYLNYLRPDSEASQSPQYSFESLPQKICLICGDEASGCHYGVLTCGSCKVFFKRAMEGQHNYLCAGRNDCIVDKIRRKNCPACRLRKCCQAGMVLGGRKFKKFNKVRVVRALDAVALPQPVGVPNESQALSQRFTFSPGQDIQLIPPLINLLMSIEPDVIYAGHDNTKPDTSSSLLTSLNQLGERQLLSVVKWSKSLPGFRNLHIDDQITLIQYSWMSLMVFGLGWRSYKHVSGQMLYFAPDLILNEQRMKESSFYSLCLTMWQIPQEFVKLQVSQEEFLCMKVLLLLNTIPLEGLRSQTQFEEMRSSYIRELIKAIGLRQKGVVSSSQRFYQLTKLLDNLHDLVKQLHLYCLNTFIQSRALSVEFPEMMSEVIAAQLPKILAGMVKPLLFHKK
Excerpt: as §1

Glucocorticoid receptor = biological target: T2, Glucocorticoid receptor (Homo sapiens, UniProt P04150); assay: Activity at steroid receptors: glucocorticoid
T2 sequence (P04150 1-777): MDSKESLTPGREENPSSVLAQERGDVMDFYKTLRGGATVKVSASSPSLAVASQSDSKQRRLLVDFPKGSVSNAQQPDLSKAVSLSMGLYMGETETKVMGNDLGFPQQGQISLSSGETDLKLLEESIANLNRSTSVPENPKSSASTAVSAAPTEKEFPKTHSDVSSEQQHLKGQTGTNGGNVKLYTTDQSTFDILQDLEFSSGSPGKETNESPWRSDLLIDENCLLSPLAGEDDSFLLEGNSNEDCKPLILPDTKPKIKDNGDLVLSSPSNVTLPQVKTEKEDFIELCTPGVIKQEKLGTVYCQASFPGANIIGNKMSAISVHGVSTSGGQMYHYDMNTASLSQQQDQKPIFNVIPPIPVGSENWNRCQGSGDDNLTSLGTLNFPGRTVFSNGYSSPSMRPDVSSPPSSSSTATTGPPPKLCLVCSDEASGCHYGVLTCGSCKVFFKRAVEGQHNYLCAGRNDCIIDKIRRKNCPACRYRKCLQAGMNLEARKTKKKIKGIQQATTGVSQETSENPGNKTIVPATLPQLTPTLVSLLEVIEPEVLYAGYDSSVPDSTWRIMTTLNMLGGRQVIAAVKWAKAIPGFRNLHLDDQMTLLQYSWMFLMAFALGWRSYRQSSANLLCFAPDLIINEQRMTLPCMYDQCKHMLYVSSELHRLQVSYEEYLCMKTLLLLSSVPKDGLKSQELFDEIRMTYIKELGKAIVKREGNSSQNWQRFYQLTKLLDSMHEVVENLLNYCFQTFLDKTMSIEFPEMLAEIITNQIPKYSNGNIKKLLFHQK
Excerpt: as §1

Testosterone receptor = biological target: T3, Testosterone receptor (Homo sapiens, UniProt P10275); assay: Activity at steroid receptors: testosterone
T3 sequence (P10275 1-920): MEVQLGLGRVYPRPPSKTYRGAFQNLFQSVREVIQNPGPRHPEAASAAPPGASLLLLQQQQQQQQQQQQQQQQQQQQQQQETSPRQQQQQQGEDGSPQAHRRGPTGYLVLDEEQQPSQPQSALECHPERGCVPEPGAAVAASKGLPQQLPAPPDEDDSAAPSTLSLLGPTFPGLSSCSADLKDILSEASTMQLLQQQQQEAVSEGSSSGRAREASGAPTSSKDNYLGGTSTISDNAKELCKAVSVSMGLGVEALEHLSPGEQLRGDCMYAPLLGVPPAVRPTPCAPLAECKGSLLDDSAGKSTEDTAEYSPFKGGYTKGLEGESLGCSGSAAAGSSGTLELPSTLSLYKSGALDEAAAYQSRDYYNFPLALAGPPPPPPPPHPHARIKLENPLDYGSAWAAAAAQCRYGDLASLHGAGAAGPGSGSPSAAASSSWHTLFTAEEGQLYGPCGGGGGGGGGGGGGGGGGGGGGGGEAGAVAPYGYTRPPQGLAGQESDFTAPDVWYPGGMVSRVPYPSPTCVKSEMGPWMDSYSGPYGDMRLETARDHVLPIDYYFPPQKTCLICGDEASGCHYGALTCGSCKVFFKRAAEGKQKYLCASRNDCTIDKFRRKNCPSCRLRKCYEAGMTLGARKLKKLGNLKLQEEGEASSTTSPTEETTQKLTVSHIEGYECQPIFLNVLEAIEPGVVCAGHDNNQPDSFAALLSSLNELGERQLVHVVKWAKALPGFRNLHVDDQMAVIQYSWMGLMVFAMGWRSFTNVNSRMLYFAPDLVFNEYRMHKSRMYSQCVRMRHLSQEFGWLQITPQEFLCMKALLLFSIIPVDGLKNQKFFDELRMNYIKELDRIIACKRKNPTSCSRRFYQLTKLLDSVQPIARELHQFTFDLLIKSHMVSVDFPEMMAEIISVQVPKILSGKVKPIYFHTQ
Excerpt: as §1

[3] = tested on: muscarinic receptors in PC12 cells; assay: Muscarinic receptor number in PC12 cells incubated with β-amyloid (radio-labeled ligand binding); assay type: cell-based
Procedure: Other in vitro assays have been employed to establish the effects of smilagenin. In particular various neuroblastoma cell lines including SKN-SN and SH-SY5Y cells as well as phaechromoacytoma cell lines have been cultured in vitro in the presence of β-amyloid fragments or serum depletion. […] These techniques included Trypan blue exclusion, chemiluminescence and release of lactate dehydrogenase. Of most interest was the observation that incubation of cells, in particular PC12 cells, with β-amyloid reduced the number of muscarinic receptors measured using radio-labeled ligand binding techniques.

[4] = tested on: recombinant human muscarinic receptors in CHO cells; assay: Muscarinic receptor density in CHO cells expressing recombinant human muscarinic receptors ([3H]-QNB); assay type: cell-based; conditions: smilagenin at 1 and 10 μM; FIG. 2
Procedure: In a CHO cell line expressing recombinant human muscarinic receptors in vitro, the number of muscarinic receptors tends to decline with time. Smilagenin (1-10 μM) incubated for 72 hours increases muscarinic receptor density.
Effect of smilagenin on muscarinic receptor density in CHO cells expressing recombinant human muscarinic receptors.
Chinese hamster ovary (CHO) cells expressing high levels of receptor (˜2.2 pmoles receptor/mg protein) were cultured in flasks (150 ml) for 24 hours before the start of the experiment. Vehicle (DMSO) and smilagenin (at 1 and 10 μM) were added to the medium for 48 h. The culture medium was discarded, the cells scraped off and resuspended in Hanks solution, centrifuged and m-receptor levels determined by incubating with [^3H]-QNB for 30 min followed by liquid scintillation counting. Protein levels were determined by a micro Lowry method.

[5] = tested on: muscarinic (M) receptor in the brain; assay: Single point analysis of brain M receptor density in aged rats; assay type: in vivo, Sprague-Dawley rats; conditions: 18 mg/kg/day in chow over 3 months; 23-month-old rats; FIG. 3
Procedure: Methods: Single point analysis of brain M receptor density.
Sprague-Dawley rats, 23-month-old, (i.e. aged) were divided into 2 groups, aged-control and aged+smilagenin. Smilagenin (18 mg/kg/day) was mixed in the chow over the 3 month period; Male 4-6 month old rats acted as young controls. At the end of the 3-month treatment period, pairs of treated and control animals were sacrificed by cervical dislocation and the intact brain removed. Single point analysis of brain M receptor density was obtained.

aged Sprague-Dawley rats = assay: Cognitive function in the Y-maze test in aged rats; assay type: in vivo; conditions: 18 mg/kg/day in chow, 3 months intake; rats aged 23 months; FIG. 4
Procedure: Methods: Cognitive function in the Y-maze test
Sprague-Dawley rats aged 23 months (i.e. aged) were divided into aged-control or aged+smilagenin treatment group. Rats aged 3 to 4 months acted as young controls. The treatment group received 18 mg/kg/day of smilagenin in chow. Chow without smilagenin was given to each rat after the chow containing smilagenin had been consumed. Three months later the animals were tested in the Y-maze as follows; an equilateral Y-shaped maze was used composed of three 45 cm arms with copper rods in the floor at the end of each arm which conduct electricity and which were 0.2 cm in diameter, 14 cm in length and with a 1 cm gap between them. There were 15 W signal lights at each end. A safe region was indicated by a light signal in an arm where there was no electricity. If a rat moved to a safe region, a correct reaction was recorded. If it moved to an arm where there was no light, an error reaction was recorded. Following the response, an electric shock was again given after a 5 seconds interval. Twenty trials in total were conducted and the correct reaction rate was obtained: number of correct reactions/(20)/mean response time. Seven such training sessions were completed over seven days. Memory tests were then repeated 15 and 30 days later (=4 months) using the same techniques as just described.

[6] = molar concentration of compound 10^−5

Chain of m2 receptors on CHO cells (P08172 whole entry, the tested form may be a part): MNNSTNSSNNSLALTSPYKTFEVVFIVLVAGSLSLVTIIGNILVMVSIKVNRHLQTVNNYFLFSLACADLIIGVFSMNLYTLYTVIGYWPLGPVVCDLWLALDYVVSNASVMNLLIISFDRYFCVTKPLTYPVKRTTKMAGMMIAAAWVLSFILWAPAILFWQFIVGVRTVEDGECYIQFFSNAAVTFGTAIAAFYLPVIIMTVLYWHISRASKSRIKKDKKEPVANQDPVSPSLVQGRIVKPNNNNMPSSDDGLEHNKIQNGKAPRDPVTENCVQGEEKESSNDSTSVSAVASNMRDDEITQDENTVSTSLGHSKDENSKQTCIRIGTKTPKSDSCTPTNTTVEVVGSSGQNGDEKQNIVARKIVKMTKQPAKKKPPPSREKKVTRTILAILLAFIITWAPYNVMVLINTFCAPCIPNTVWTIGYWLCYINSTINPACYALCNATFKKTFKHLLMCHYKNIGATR

Compound: C[C@@H]1CC[C@@]2(OC1)O[C@H]1C[C@H]3[C@@H]4C[C@@H](O)[C@@]5(O)C[C@@H](O)CC[C@]5(C)[C@H]4CC[C@]3(C)[C@H]1[C@@H]2C [Anzurogenin D, reference compound]
- Effect on receptor expression - given as % increase compared to control (negative values in brackets) [1, 6]: 22%
- Concentration of compound causing a significant increase in number of receptors expressed on neonatal cardiac muscle after 10 days in vitro culture [2]: 10^−6M

Compound: Astragaloside
- Concentration of compound causing a significant increase in number of receptors expressed on neonatal cardiac muscle after 10 days in vitro culture [2]: 10^−5M

Compound: smilagenin
- Effect on receptor expression - given as % increase compared to control (negative values in brackets) [1, 6]: 57%
- Effect on receptor expression - given as % increase compared to control (negative values in brackets) ([1]; molar concentration of compound 10^−6): 18%
- Effect of tamoxifen on the increase in muscarinic receptor number on CHO cells ([1]; tested in the presence and absence of tamoxifen): not antagonized by tamoxifen
- Concentration of compound causing a significant increase in number of receptors expressed on neonatal cardiac muscle after 10 days in vitro culture [2]: 10^−6M
- Oestrogenic activity (oestrogen receptor): does not display oestrogenic activity
- Activity at progesterone receptor (Progesterone receptor): no activity
- Activity at glucocorticoid receptor (Glucocorticoid receptor): no activity
- Activity at testosterone receptor (Testosterone receptor): no activity
- Effect on β-amyloid-induced reduction in muscarinic receptor numbers [3]: ameliorated
- Effect on muscarinic receptor number/density over the culturing period [4]: prevents the decrease in muscarinic receptor number in a concentration-dependent manner
- Brain M receptor numbers compared to aged controls [5]: increased M receptor numbers
- Cognitive function (learning and memory performance) in Y-maze (aged Sprague-Dawley rats): reversed the decline in cognitive function
